This assay relates to Kaninchen. Nature of the assay: Blood sugar lowering after oral administration to rabbits (autoanalyzer). In kind it is in vivo. As to conditions: 0,4 mg/kg oral, nach 6 Stunden. On the procedure:
Die blutzuckersenkende Wirkung der erfindungsgemäßen Benzolsulfonylharnstoffe kann dadurch festgestellt werden, daß man sie als freie Verbindungen oder in Form der Natriumsalze an normal ernährte Kaninchen verfüttert und den Blutzuckerwert nach der bekannten Methode von Hagedorn-Jensen oder mit einem Autoanalyzer über eine längere Zeitdauer ermittelt.
Die routinemäßige Bestimmung der blutzuckersenkenden Wirkung kann mit Dosierungen von z.B. 10,2 oder 0,4 mg oder mit noch geringeren Mengen Wirksubstanz pro kg Versuchstier nach bekannten Methoden erfolgen.
Die folgenden Verbindungen I bis V wurden in Dosierungen von 2 mg/kg Kaninchen oral verabreicht und die Blutzuckerwerte wurden mit einem Autoanalyzer über eine Zeitdauer von 24 Stunden ermittelt. Die hierbei gemessene Blutzuckersenkung ist in der nachfolgenden Tabelle in % nach ... Stunden angegeben. • I N-(4-<2-(N'-<5-Chlor-2-methoxy-benzoyl>-ureido)-äthyl>- benzolsulfonyl)-N'-cyclohexyl-harnstoff • II N-(4-<2-(N'-<5-Chlor-2-methoxy-benzoyl>-ureido)-äthyl>- benzolsulfonyl)-N'-butyl-harnsotff • III N-(4-<2-(N'-<5-Chlor-2-methoxy-benzoyl>-ureido)-äthyl>- benzolsulfonyl)-N'-cyclopentyl-harnstoff • IV N-(4-<2-(N'-<2-Methoxy-5-methyl-benzoyl)-ureido)-äthyl>- benzolsulfonyl)-N'-cyclohexyl-harnstoff • V N-(4-<2-(N'-<2-Methoxy-5-methyl-benzoyl>-ureido)-äthyl>- benzolsulfonyl)-N'-(4-methyl-cyclohexyl)-harnstoff [formula]
Die Verbindungen I, IV und V wurden in Dosierungen von 0,4 mg/kg oral an Kaninchen verabreicht und die Blutzuckersenkung gemessen. Sie betrug nach 6 Stunden 40 % (Verbindung I), 41 % (Verbindung IV) und 33 % (Verbindung V).

The record followed here is patent publication EP0047496A1, “Sulfonyl ureas, processes for their production, pharmaceutical compositions based on these compounds and their use” (HOECHST AKTIENGESELLSCHAFT, priority 1980, dated 1982).

Compound `COc1ccc(C)cc1C(=O)NC(=O)NCCc1ccc(S(=O)(=O)NC(=O)NC2CCCCC2)cc1` [Verbindung IV] displayed a Blutzuckersenkung of 41%.
The value for `COc1ccc(C)cc1C(=O)NC(=O)NCCc1ccc(S(=O)(=O)NC(=O)NC2CCC(C)CC2)cc1` (stereo not drawn) [Verbindung V, N-(4-<2-(N'-<2-Methoxy-5-methyl-benzoyl>-ureido)-äthyl>- benzolsulfonyl)-N'-(4-methyl-cyclohexyl)-harnstoff] was 33%; that for `COc1ccc(Cl)cc1C(=O)NC(=O)NCCc1ccc(S(=O)(=O)NC(=O)NC2CCCCC2)cc1` [Verbindung I, N-(4-<2-(N'-<5-Chlor-2-methoxy-benzoyl>-ureido)-äthyl>- benzolsulfonyl)-N'-cyclohexyl-harnstoff] was 40%.
